Test [1] has as its target FGFR1 (Homo sapiens, UniProt P11362). In words: FGFR receptor binding assay: ultrafiltration/mass spectrometry affinity screening to FGFR1 protein target. The settings on record: ratio of lower-layer to upper-layer compound MS signal intensity; the greater the ratio, the stronger the affinity. The procedure: The affinity of the polypeptide compound prepared by the present invention to FGFR1 was tested by using a control FGFR1 allosteric inhibitor (product number SSR128129E from Sigma) as a positive compound control.
Screening for the affinity to FGFR1 was as follows: FGFR1 solutions with an appropriate concentration were taken, the positive compound SSR128129E (Sigma) at an appropriate concentration and sample solutions of the inventive polypeptide compounds, as freeze-dried powders, dissolved in protein buffers were then respectively added. After incubation at room temperature for 50 min, ultrafiltration and screening were carried out to obtain various treated solutions. An appropriate volume of acetonitrile was added to each treated solution to precipitate a protein, the solution was then centrifuged, and the supernatant was taken and analyzed by mass spectrometry.
Affinity screening conditions: One-dimensional liquid-phase conditions were: chromatographic column; PolyLC chromatographic column, mobile phase A: KH2PO4, NaCl, pH 7.5, mobile phase B: acetonitrile, column temperature: 8° C., flow rate: 1 mL/min, and injection volume: appropriate; and two-dimensional liquid-phase conditions were: chromatographic column: BONUS RRHD, mobile phase A: 0.1% formic acid aqueous solution, mobile phase B: 0.1% formic acid in acetonitrile, column temperature: 60° C., flow rate: 0.3 mL/min, and injection volume: 40 uL. Gradient elution was used, i.e., 98% A (0-1 min), 98-10% A (1-6 min), 10% A (6-7.5 min), 10-98% A (7.5-8 min), and 98% A (8-9.5 min). Mass spectrometry conditions: Agilent 6530 Q-Tof, ESI ion source, voltage 3.5 KV, mass-to-charge ratio scanning range m/z=200-3000, acquisition mode: positive ion scanning, ion source temperature: 350° C., solvent removal temperature: 300° C., and nitrogen flow rate: 8 L/min.

Test [2] has as its system HMEC-1 cells. Nature of the test: Proliferation of HMEC-1 cells (CCK-8). As to conditions: 0.05, 0.2 and 0.8 ug/mL; 48 h; 0% serum. It is filed as cell-based, Human. The method, then:
Human microvascular endothelial cells (HMEC-1 cells) were cultured in 10% serum culture medium at 37° C. and 5% CO2, the medium was replaced every 1-2 d, and the cell concentration was controlled to be 4×10^6 cells/mL for passage. Cells were collected, prepared to […] with complete culture medium, inoculated into a 96-well cell culture plate, with 100 μL per well, i.e., 5000 cells/well, and cultured at 37° C. and 5% CO2 until the cells adhered to the wall. The polypeptide compound of the present invention was prepared to test concentrations (0.05 ug/mL, 0.2 ug/mL, and 0.8 ug/mL) with 0% serum culture medium as experimental groups, a positive drug (300 ng/ml) was prepared in the same way and added as a positive control, and an equal amount of 0% serum drug-free culture medium was added to the control group. They were added to 5 duplicate wells, and the resultants were incubated at 37° C. and 5% CO2 for 48 h. Detection of the proliferation of cells using CCK-8: the old culture medium was removed, and a serum-free medium containing 10% CCK-8 was added to each well. After incubation in an incubator for 2 h, the absorbance at 450 nm was measured by a microplate reader.

Test [3] concerns chronic atrophic gastritis model in mice. In words: Therapeutic effect on chronic atrophic gastritis model in mice (MNNG combined with ranitidine). The test is classed as in vivo. The settings on record: 5 mg/kg daily by gavage, 2 weeks. The method, then: Method: Chronic atrophic gastritis was induced by MNNG (N-methyl-N-nitro-N-nitrosoguanidine) combined with ranitidine. The mice were free to access to an aqueous solution containing MNNG ([…]), and at the same time, the mice were given ranitidine (8 mg/ml) aqueous solution at a dose of 150 mg/kg by gavage at a fixed time per day for 20 consecutive weeks. After 20 weeks of modeling, on the basis of drinking ordinary distilled water, the mice were given Compound 1 (5 mg/kg) daily by gavage.

“Also recorded” adds a separate entry of the source. Where no end group is shown, it is not given here.

Data on three sequences can be found in patent US20250263437A1, “POLYPEPTIDE FOR REPAIRING SKIN WOUND OR MUCOSAL INJURY, AND APPLICATION THEREOF” (Sichuan Gooddoctor Panxi Pharmaceutical Co., Ltd., priority 2021, published 2025).

FGFR1, sequence (P11362 22-822, species assumed): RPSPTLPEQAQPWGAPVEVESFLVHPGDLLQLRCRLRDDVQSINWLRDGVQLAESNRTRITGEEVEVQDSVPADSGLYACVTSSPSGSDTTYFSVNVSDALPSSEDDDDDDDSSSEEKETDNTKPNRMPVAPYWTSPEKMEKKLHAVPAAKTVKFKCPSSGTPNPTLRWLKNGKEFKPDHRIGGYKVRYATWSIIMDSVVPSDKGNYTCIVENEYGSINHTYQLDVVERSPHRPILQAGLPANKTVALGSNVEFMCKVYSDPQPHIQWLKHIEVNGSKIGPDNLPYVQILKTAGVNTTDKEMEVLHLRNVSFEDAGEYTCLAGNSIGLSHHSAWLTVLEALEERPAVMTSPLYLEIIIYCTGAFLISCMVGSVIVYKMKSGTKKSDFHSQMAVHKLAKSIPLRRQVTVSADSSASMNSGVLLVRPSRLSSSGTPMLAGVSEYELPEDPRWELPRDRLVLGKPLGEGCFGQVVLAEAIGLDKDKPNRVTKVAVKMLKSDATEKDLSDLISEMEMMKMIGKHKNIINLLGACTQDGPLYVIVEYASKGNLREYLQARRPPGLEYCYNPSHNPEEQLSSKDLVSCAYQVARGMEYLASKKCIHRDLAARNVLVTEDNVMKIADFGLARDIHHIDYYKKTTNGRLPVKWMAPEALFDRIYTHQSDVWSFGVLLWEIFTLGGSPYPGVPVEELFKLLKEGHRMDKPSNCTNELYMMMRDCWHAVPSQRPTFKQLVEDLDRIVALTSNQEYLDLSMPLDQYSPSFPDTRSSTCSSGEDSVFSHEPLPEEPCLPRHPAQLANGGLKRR

In the case of VDAAVLEKLE [Compound 67], the Cb/Ct range in test [1] is recorded as 1.0-3.
As to SMQASLEAEAKGKAE [Compound 1], in test [2], the “effect on proliferation of HMEC-1 cells” value is reported as “significant proliferation promoting effects; also recorded: proliferation-promoting effect”. Also, the “repair / therapeutic effect on chronic atrophic gastritis” value in test [3] is “could promote the repair of chronic atrophic gastritis in mice; also recorded: therapeutic effect”. In test [3] (compared with the model group), the “height of the mucosa in the gastric antrum” value is “substantially recovered to the normal state”, the “number of parietal cells” value is “increased significantly” and the “structure of the gastric gland” value is “recovered to normal”. Besides, the Cb/Ct range in test [1] is 1.0-3.
In the case of AAVLDKLE [Compound 68], the Cb/Ct range in test [1] was 1.0-3.
